The nature of data set [1]: In vitro dissolution test of Drug 1 compositions in MFDS solution (concentration enhancement). Format: physicochemical. The following applies: for AUC90 / Cmax9O: Drug 1, MFDS pH 6.5, 37° C., first 90 min; for AUC / Drug 1 Concentration: MFDS pH 6.5, 37° C. From the text: In conducting such a dissolution test, the amount of test composition used is an amount such that if all of the drug dissolved, the drug concentration would be at least 2-fold to 100-fold or more than that of the equilibrium concentration of the drug. The concentration of dissolved drug is typically measured as a function of time by sampling the test medium and plotting drug concentration in the test medium vs. time so that the MDC and/or AUC can be ascertained.
To avoid drug particulates greater than about 0.4 to 1.0 μm in size being present in the solution assayed, which would give an erroneous determination, the test solution is either filtered or centrifuged. “Dissolved drug” is typically taken as that material that either passes a 0.45 μm syringe filter or, alternatively, the material that remains in the supernatant following centrifugation. Filtration can be conducted using a 13 mm, 0.45 μm polyvinylidine difluoride syringe filter sold by Scientific Resources under the trademark TITAN®. Centrifugation is typically carried out in a polypropylene microcentrifuge tube by centrifuging at 13,000 G for 60 seconds. Other similar filtration or centrifugation methods can be employed and useful results obtained. For example, using other types of microfilters may yield values somewhat higher or lower (by about 10-40%) than that obtained with the filter specified above but will still allow identification of preferred compositions. It is recognized that this definition of “dissolved drug” encompasses not only monomeric solvated drug molecules but also a wide range of species such as polymer/drug assemblies that have submicron dimensions such as drug aggregates, aggregates of mixtures of polymer and drug, micelles, polymeric micelles, colloidal particles or nanocrystals, polymer/drug complexes, and other such drug-containing species that are present in the filtrate or supernatant in the specified dissolution test.
For these tests, samples containing 0.72 mg of Example 1B, 0.36 mg of either Control 1C or 1D, or 0.72 mg of Control 1E were separately added to microcentrifuge tubes. The tubes were placed in a 37° C. temperature-controlled chamber, and 1.8 mL MFDS solution at pH 6.5 was added. The contents of the tubes were quickly mixed using a vortex mixer for about 60 seconds. The tubes were then centrifuged at 13,000 G at 37° C. for 1 minute. The supernatant was sampled and diluted 1:6 (by volume) with methanol and then analyzed by high-performance liquid chromatography (HPLC). Drug 1 was analyzed by HPLC using a Waters Symmetry C18 column. The mobile phase consisted of 0.3 vol % glacial acetic acid, 0.2 vol % triethylamine in HPLC water/acetonitrile in a volume ratio of 50/50. Drug concentration was calculated by comparing UV absorbance at 260 nm to the absorbance of Drug 1 standards.
The contents of the tubes were then again mixed on the vortex mixer and allowed to stand undisturbed at 37° C. until the next sample was taken. Samples of the tubes were collected at 4, 10, 20, 40, 90, and 1200 minutes.

Data set [2] in a line: In vivo test of Drug 1 compositions, oral powder for constitution, plasma Drug 1. The following applies: male beagle dogs, oral gavage, 10 mgA/kg Drug 1, plasma. The protocol:
The composition of Example 1B was used as an oral powder for constitution (OPC) for evaluating the performance of the composition in in vivo tests using male beagle dogs. The OPC was dosed as a suspension in a solution containing 0.5 wt % Methocel® (Dow Chemical Co.), and was prepared as follows. First, 5.0130 g of Methocel® was weighed out and added slowly to approximately 200 ml of water at 60° C. to form a Methocel® suspension. After all the Methocel® was added, the suspension was placed in a beaker of ice water. Next, 800 ml of chilled water was added with stirring. A 702.7 mg sample of Example 1B was weighed into a mortar. A drop of the Methocel® suspension was added to the mortar and the drug mixture was ground with a pestle. Additional Methocel® suspension was added gradually with grinding until a pourable suspension was obtained. The suspension was then transferred to a vial. The mortar and pestle were washed with the remaining Methocel® suspension. A total of 350 ml of Methocel® suspension was added to the Example 1B sample.
Six male beagle dogs were dosed with samples of Example 1B. Sufficient amounts of the OPC were dosed such that each dog received 10 mgA/kg of Drug 1 (where “A” refers to active drug). The dogs were fed 1 can of liquid diet the day prior to the study. On the day of the study, the dogs were dosed with the OPC using a gavage tube and a syringe. Whole blood samples of 6 ml were taken from the jugular vein using a plasma vacutainer containing sodium heparin with a 20 gauge needle at 0, ½, 1, 2, 3, 4, 6, 8, and 24 hours post dosing. Samples were spun in a refrigerated (5° C.) centrifuge at 3000 rpm for 5 minutes. The resultant plasma samples were poured into 2 ml cryogenic plastic tubes and stored in a freezer (−20° C.) within ½ hour post sampling time. Samples were then analyzed for Drug 1 using an HPLC method.
A similar method was used to dose the dogs with samples of Control 1B, Control 1C, and Control 1D. A washout period of at least 1 week was used between dosing of the various compositions.

Data set [3] is described as follows: In vivo test of Drug 2 compositions, gelatin capsule, plasma Drug 2. The following applies: fasted male beagle dogs, one gelatin capsule, 40 mg Drug 2, plasma. The procedure:
The composition of Example 2 was placed in a gelatin capsule such that the capsule contained 40 mg of Drug 2. Five fasted male beagle dogs were dosed with one capsule and whole blood samples of 6 ml were taken from the jugular vein using a plasma vacutainer containing sodium heparin with a 20 gauge needle at 0, ½, 1, 1½, 2, 3, 4, 6, 8, 12, and 24 hours post dosing. Samples were spun in a refrigerated (5° C.) centrifuge at 3000 rpm for 5 minutes. Resultant plasma samples were poured into 2 ml cryogenic plastic tubes and were stored in a freezer (−20° C.) within ½ hour post sampling time. Similar tests were performed with a gelatin capsule containing 40 mg of crystalline Drug 2 (Control 2B).

Data set [4] is described as follows: In vitro dissolution test of Drug 2 compositions in MFDS solution (concentration enhancement). It is filed as physicochemical. The following applies: 37° C.; for AUC / Drug 2 Concentration: MFDS. The procedure: The concentration-enhancement provided by Example 2, Control 2B and Control 2C was determined using an in vitro dissolution test as follows. Samples containing 3.91 mg of Example 2, 0.36 mg of Control 2B, or 3.9 mg of Control 2C, were separately added to microcentrifuge tubes. The tubes were placed in a 37° C. temperature-controlled chamber, and 1.8 mL MFDS solution was added. The contents of the tubes were quickly mixed using a vortex mixer for about 60 seconds. The tubes were then centrifuged at 13,000 G at 37° C. for 1 minute. The supernatant was sampled and diluted 1:6 (by volume) with methanol and then analyzed by high-performance liquid chromatography (HPLC). Drug 2 was analyzed by HPLC using a Phenomenex ODS 20 column (250 mm×4.6mm). The mobile phase consisted of 0.02 M KH2PO4 (pH 3)/acetonitrile in a volume ratio of 60/40. Drug concentration was calculated by comparing UV absorbance at 254 nm to the absorbance of Drug 2 standards. The contents of the tubes were then again mixed on the vortex mixer and the next sample was taken. […]

As to `NC(=O)N(O)C1C=C(c2cccc(Oc3ccc(F)cc3)c2)CC1` (single isomer, unassigned; (+)) [Control 1C, (+)-N-{3-[3-(4-fluorophenoxy)phenyl]-2-cyclopenten-1-yl}-N-hydroxyurea], the AUC90 in data set [1] was 2200 µg·min/mL. Further, in data set [1], the Cmax9O was 32000 ng/mL. In addition, the AUC in data set [1] (time 0 min) was 0 µg·min/mL; in data set [1] (time 4 min), 0 µg·min/mL; in data set [1] (time 10 min) it was 100 µg·min/mL; in data set [1] (time 20 min), 300 µg·min/mL; in data set [1] (time 40 min) it was 800 µg·min/mL; in data set [1] (time 90 min) it was 2,200 min*μg/mL. In addition, in data set [1] (time 1200 min), the AUC was 43,300 min*μg/mL. The “Drug 1 Concentration” value in data set [1] (time 0 min) was 0 µg/mL; in data set [1] (time 4 min), 9 µg/mL; in data set [1] (time 10 min) it was 15 µg/mL; in data set [1] (time 20 min), 21 µg/mL; in data set [1] (time 40 min), 27 µg/mL; in data set [1] (time 90 min), 32 µg/mL. Further, the “Drug 1 Concentration” value in data set [1] (time 1200 min) is 42 µg/mL. Further, the Cmax in data set [2] is on record as 1,650 ng/ml. For the same molecule, the AUC(0-inf) in data set [2] (male, beagle, dog, plasma, po, 10 mgA/kg, read-out: AUC(0-inf)) stood at 11100 ng·h/mL.
`NC(=O)N(O)C1C=C(c2cccc(Oc3ccc(F)cc3)c2)CC1` (single isomer, unassigned; (+)) [Control 1D, (+)-N-{3-[3-(4-fluorophenoxy)phenyl]-2-cyclopenten-1-yl}-N-hydroxyurea]: the AUC90 in data set [1] turned out to be 5600 µg·min/mL. Further, in data set [1], the Cmax9O came to 70000 ng/mL. Also, the AUC in data set [1] (time 0 min) is 0 µg·min/mL; in data set [1] (time 4 min) it was 100 µg·min/mL; in data set [1] (time 10 min) it was 400 µg·min/mL; in data set [1] (time 20 min), 1,000 min*μg/mL; in data set [1] (time 40 min) it was 2,300 min*μg/mL; in data set [1] (time 90 min), 5,600 min*μg/mL. For the same molecule, the area under the curve (AUC) in data set [1] (time 1200 min) is listed as 77,800 min*μg/mL. In addition, the “Drug 1 Concentration” value in data set [1] (time 0 min) was 0 µg/mL; in data set [1] (time 4 min) it was 50 µg/mL; in data set [1] (time 10 min), 58 µg/mL; in data set [1] (time 20 min) it was 61 µg/mL; in data set [1] (time 40 min) it was 64 µg/mL; in data set [1] (time 90 min) it was 70 µg/mL. The “Drug 1 Concentration” value in data set [1] (time 1200 min) turned out to be 60 µg/mL. In data set [2], the “AUC(0-inf)” value is 20,700 ng/ml * hr. Further, in data set [2], the Cmax is recorded as 3,622 ng/ml.
Regarding `O=C1Cc2cc(CCN3CCN(c4nsc5ccccc45)CC3)c(Cl)cc2N1` [Control 2B], the AUC(0-inf) in data set [3] was 1050 ng·h/mL. The molecule also showed a Cmax in data set [3] of 196 ng/mL. In addition, in data set [4] (Drug 2, MFDS, first 90 min), the AUC90 is reported as 1,600 min * μg/mL. Further, in data set [4] (Drug 2, MFDS, first 90 min), the Cmax90 came out at 23000 ng/mL. Also, the AUC is 0 µg·min/mL in data set [4] (time 4 min); 100 µg·min/mL in data set [4] (time 10 min); 300 µg·min/mL in data set [4] (time 20 min); 700 µg·min/mL in data set [4] (time 40 min); 1,600 min*μg/mL in data set [4] (time 90 min); 14,900 min*μg/mL in data set [4] (time 1200 min). The “Drug 2 Concentration” value in data set [4] (time 4 min) worked out at 14 µg/mL; in data set [4] (time 10 min), 17 µg/mL; in data set [4] (time 20 min) it was 23 µg/mL; in data set [4] (time 40 min) it was 19 µg/mL; in data set [4] (time 90 min) it was 15 µg/mL; in data set [4] (time 1200 min), 9 µg/mL.

(Values after patent publication US8257739B2, “Pharmaceutical compositions of semi-ordered drugs and polymers” (Bend Research, Inc., priority 2002, dated 2012).)
